Values quoted from earlier work, collected in patent publication US20240398745A1, “COMPOSITION AND METHODS OF TREATMENT USING […] - ENHANCED SUPPLEMENTATION” (Xygenyx Inc., priority 2023, published 2024).
Square brackets hold non-standard residues; d marks the D form. Peptide text beside a SMILES is read from it. Cit = NC(=O)NCCC[C@H](N)C(=O)O

Key:
[1] = α-tocopherol taken as 1.0
[2] = even when dietary intake occurs in equal portions
[3] = test system: skin; details: topical formulations, within four weeks of treatment
[4] = test system: skin; details: topical, concentrations 0.5-5%
[5] = in vivo
[6] = in vivo; remark: listed apart in the source
[7] = test system: wide dynamic range neurons in the ventroposterolateral nucleus of the thalamus; details: believed

## Cc1c(O)cc2c(c1C)O[C@](C)(CCC[C@H](C)CCC[C@H](C)CCCC(C)C)CC2 [γ-tocopherol]
[1]
  relative biological activity: 0.1
[2]
  concentration in vivo relative to α-tocopherol: roughly 10%

## Cc1cc(O)cc2c1O[C@](C)(CCC[C@H](C)CCC[C@H](C)CCCC(C)C)CC2 [δ-tocopherol]
[1]
  relative biological activity: 0.03

## Cc1c(C)c2c(c(C)c1O)CC[C@@](C)(CCC[C@H](C)CCC[C@H](C)CCCC(C)C)O2 [α-tocopherol]
Dietary supplementation, doses up to 400 IU/day
  reduction of risk of coronary disease: up to 34%
Dietary supplementation, doses up to 400 IU/day, controlled trials
  reduction of risk of developing neurodegenerative diseases such as Alzheimer's Syndrome or dementia: ≤ 24%
In combination with 10-20 mg β-carotene and 400-500 mg vitamin C, doses around 400-500 IU
  reduction in the development of age-related cataracts: 23%

## CC[C@H](C)[C@H](NC(=O)[C@H](CC(=O)O)NC(=O)[C@@H](N)CCCCN)C(=O)N[C@@H](CCCNC(N)=O)C(N)=O [tripeptide-10 citrulline, Tripeptide-10 citrulline] (H-KDI[Cit]-NH2)
[3]
  improvement of suppleness: ≤ 54%

## C=CCCCCCCCCC(=O)N[C@@H](Cc1ccccc1)C(=O)O [UP, Undecylenoyl phenylalanine]
[4]
  time of treatment to skin lightening effects: ≥ 7 days

## CCNC(=O)CC[C@H](N)C(=O)O [Theanine]
[5]
  dose generally considered safe and well-tolerated: up to 400 mg per day

## HGH: hormone comprising a peptide chain that is synthesized in the pituitary gland
[6]
  biological half-life: 10-20 minutes

## Cc1cc(O)c(C)c2c1O[C@](C)(CCC[C@H](C)CCC[C@H](C)CCCC(C)C)CC2 [β-tocopherol]
[1]
  relative biological activity: 0.5

## CCCCCc1cc(O)c2c(c1)OC(C)(C)C1CCC(C)=CC21 (stereo not drawn) [THC, Δ-9-tetrahydrocannabinol]
[7]
  power in mediating pain relative to morphine: ten times more powerful than morphine
